Data on 1 compound can be found in US11617718B2, “Process for producing a nano-CBD microemulsion system” (priority 2019, dated 2023).

Like-named read-outs stand apart in the source and are kept apart here.

Series [1] is described as follows: Water solubility / water-dispersing ability. It counts as physicochemical. As to conditions: FIG. 1, dispersed in water. As for the experimental part: Producing a carrier: 70 ml of PEG was heated to 70° C. 70 ml of the carrier was added to the above-prepared dispersal phase, this dispersal phase continued to be heating to 100° C. and stirred at a speed of 600 rpm.

The conditions of series [2]: cited from earlier work.

For `C=C(C)[C@@H]1CCC(C)=C[C@H]1c1c(O)cc(CCCCC)cc1O` [CBD, Cannabidiol], the water-dispersing ability result in series [1] is “insoluble in water”. For the same compound, the half-life result in series [2] (in vivo) is recorded as “about 9 hours”. For the same compound, the bioavailability entry in series [2] (used nasally (inhalantly)) is “about 31%”; in series [2] (used orally), 13-19%.
